Source: PMC4020785 (PLoS ONE, 2014)

Experiments:
HIV = system: HIV; parameters: method as in PMID 8787923; settings: MT-4 cells; cited from earlier work
HIV LTR in J-Lat clones = assay: LTR-driven GFP expression in J-Lat clones; type: cell-based, HIV-1; settings: J-Lat clones 9.2 and 10.6, 48 h, all concentrations tested
Description: J-Lat cells are Jurkat cells stably transfected by an HIV genome whose nef sequence was replaced by the GFP gene. Also, a frameshift mutation was introduced to the env gene to prevent virus spread. […] To test the ISDs, a million cells of each clone were treated with different concentrations of each compound (ING-A, ING-B, ING-C, prostratin and PMA) at 37°C. TNF-α (10 ng/mL) was used as a positive control. After 48 h, cells were collected, washed with saline solution (PBS) and GFP expression was evaluated in a FACScalibur cytometer (BD Biosciences). Data were analyzed with Cell Quest Pro software (BD Biosciences).

[1] = system: CD4, CXCR4, CCR5 on MT-4 cells; assay: Surface CD4, CXCR4, CCR5 expression in MT-4 cells (cytometry); type: cell-based; settings: 1 µM
Description: (§1) For analysis of cell surface marker expression, MT-4 cells and bead-selected CD4+ T cells (described above) were incubated with 1 µM of each compound (ING-A, ING-B, ING-C, prostratin, PMA, and bryostatin-1) at 37°C for 48 h. After incubation, cells were washed with PBS and incubated for 20 min at room temperature with antibodies against CD3-Brilliant Violet 510 (clone OKT3 – Biolegend), CD4-Qdot 655 (clone 53.5 - Life Technologies), CXCR4-PE (clone 1265 - BD Biosciences), CCR5-PerCP-Cy5.5 (clone 3A9 - BD Biosciences), CD69-Pacific Blue (clone FN50 – BD Biosciences), CD38-FITC (clone AT-1 – Stem Cell Technologies), CD25-APC (clone 2A3 – BD Biosciences), HLA-DR-Qdot 605 (clone TÜ36 – Life Technologies) and a marker for annexin V-FITC (Life Technologies). Cells (both MT-4 cells and CD4+ T cells) were initially incubated for 2 h with different PKC inhibitors (GÖ6983, GÖ6976 or RO-31-8220). Then, ING-B, prostratin or PMA at 1 µM or TNF-α at 10 ng/mL were added to each condition and incubation was carried out for 24 h at 37°C. Similar protocol was used for the analysis of PKC inhibitors in J-Lat clones 9.2 and 10.6. GFP expression, surface marker expression and activation marker were evaluated on a LSR Fortessa cytometer (BD Biosciences). Data analysis was performed using FlowJo software (Tree Star).

CD4+ T lymphocytes = assay: Activation markers CD25, CD38, HLA-DR, CD69 on CD4+ T lymphocytes (cytometry); type: cell-based, human; settings: 1 µM
Description: For analysis of cell surface marker expression, MT-4 cells and bead-selected CD4+ T cells (described above) were incubated with 1 µM of each compound (ING-A, ING-B, ING-C, prostratin, PMA, and bryostatin-1) at 37°C for 48 h. […] Cells (both MT-4 cells and CD4+ T cells) were initially incubated for 2 h with different PKC inhibitors (GÖ6983, GÖ6976 or RO-31-8220). Then, ING-B, prostratin or PMA at 1 µM or TNF-α at 10 ng/mL were added to each condition and incubation was carried out for 24 h at 37°C. […] GFP expression, surface marker expression and activation marker were evaluated on a LSR Fortessa cytometer (BD Biosciences). Data analysis was performed using FlowJo software (Tree Star).

[2] = system: CD4, CXCR4, CCR5 on CD4+ T lymphocytes; assay: Surface CD4, CXCR4, CCR5 expression in CD4+ T lymphocytes (cytometry); type: cell-based, human; settings: CD4+ lymphocytes, 1 µM
Description: as §1

PKC [3] = assay: PKC inhibitors on diterpene-induced GFP expression in J-Lat clones 9.2 and 10.6; type: cell-based
Description: as §1

PKC [4] = assay: PKC inhibitors on ING-B-driven receptor downregulation in MT-4 cells; type: cell-based; settings: 0.1 µM inhibitor, then 1 µM ING-B 24 h
Description: as §1

PKC [5] = assay: PKC inhibitors on ING-B-driven receptor downregulation in CD4+ T lymphocytes; type: cell-based, human; settings: 0.1 µM inhibitor in the presence of 1 µM ING-B
Description: as §1

[6] = system: HIV-1 p24 in J-Lat clones; assay: HIV-1 p24 production in J-Lat clones (ELISA); type: cell-based
Description: (§2) ACH-2 and J1.1 are clonal cell lines derived from CEM [52] and Jurkat cells, respectively, after infection with HIV-1. U1 cells were derived from the human promonocyte cell line U937 and chronically infected with HIV-1 [54]. Each cell line (1×10^6 cells) was incubated in the presence of 1 µM of diterpenes (ING-A, ING-B, ING-C, prostratin and PMA) or 10 ng/mL TNF-α for 48 h at 37°C. After incubation, cells were centrifuged and supernatants were collected for the quantitation of gag p24 antigen by ELISA, following the protocol described by the manufacturer (Perkin Elmer).
To assess whether the GFP expression levels induced by ISDs in J-Lats led to viral production, all five clones were stimulated with 1 µM of each compound for 48 h and production of HIV-1 p24 was measured in the culture supernatant by ELISA. Levels of p24 were proportional to GFP expression in clones 6.3 and 9.2, whereas levels in clone 8.4 were lower when compared to GFP (Figure 3A).

HIV-1 latency = system: HIV-1 latency; parameters: method as in PMID 15284245; settings: statement in discussion, reference given only in the next sentence; cited from earlier work
ACH-2 cells = assay: gag p24 production in ACH-2 cells (ELISA); type: cell-based, HIV-1; settings: ACH-2, 1 µM, 48 h
Description: as §2

CC(=O)OCC1=C[C@@H]2C(=O)[C@]3(C=C(C)[C@H](OC(C)=O)[C@@]3(O)[C@@H]1OC(C)=O)[C@H](C)C[C@@H]1[C@H]2C1(C)C [ITA, Ingenol 3,5,20-triacetate]
concentration inhibiting HIV replication (as low as) (HIV): ≥ 0.05 µM

CCCCCCCCCCCCCC(=O)O[C@@H]1[C@@H](C)[C@@]2(O)[C@@H](C=C(CO)C[C@]3(O)C(=O)C(C)=C[C@@H]23)[C@@H]2C(C)(C)[C@]12OC(C)=O [PMA, phorbol 13-myristate acetate]
levels of GFP expression, rank order (HIV LTR in J-Lat clones): PMA = ING-B > ING-A = ING-C > prostratin | surface CD4 and CXCR4 expression, of that in the control condition [1]: ≥ 50% | CD25 surface expression (CD4+ T lymphocytes): upregulated | CD69 and CD38 surface expression (CD4+ T lymphocytes): more intensely | HLA-DR surface expression (CD4+ T lymphocytes): upregulated by ISDs and PMA | levels of CD4 expression [2]: severely diminished

COc1ccc2c(c1)c(C1=C(c3c[nH]c4ccccc34)C(=O)NC1=O)cn2CCCN(C)C [GÖ6983]
blocking of GFP expression induced by ING-B (PKC [3]; J-Lat clones 9.2 and 10.6, pre-treatment, then ING-B 24 h): strongly blocked GFP expression | effect on ING-B-driven receptor downregulation (PKC [4]): not able to downregulate the expression of CD4 and CXCR4 | overexpression of CD4 and CCR5 compared to untreated control (PKC [5]): up to 2.5 fold

Cn1c2ccccc2c2c3c(c4c5ccccc5n(CCC#N)c4c21)C(=O)NC3 [GÖ6976]
effect on ISD induction of GFP expression (PKC [3]; 0.1 µM inhibitor): little effect | effect on ING-B-driven receptor downregulation (PKC [4]): little effect on blocking receptor downregulation

CC(=O)O[C@@]12C[C@@H](C)[C@@]3(O)[C@@H](C=C(CO)C[C@]4(O)C(=O)C(C)=C[C@@H]34)[C@@H]1C2(C)C [prostratin, 12-deoxyphorbol 13-acetate]
levels of GFP expression, rank order (HIV LTR in J-Lat clones): PMA = ING-B > ING-A = ING-C > prostratin | p24 in culture supernatant ([6]; J-Lat clone 15.4, 1 µM, 48 h): does not appear to work | HIV-LTR activation, overall comparison ([6]; J-Lat clones, GFP and p24 taken together): the less effective compound among all tested | downregulation of surface CD4 and CXCR4 (in words) [1]: not by prostratin and bryostatin-1 | CD25 surface expression (CD4+ T lymphocytes): upregulated | HLA-DR surface expression (CD4+ T lymphocytes): not by prostratin | downregulation of surface CCR5 [2]: less efficient in downregulating surface expression of CCR5 | concentration required to reactivate HIV-1 latency (HIV-1 latency): higher than 2 µM | p24 production (in words) (ACH-2 cells): low levels of p24 production
